In ChEMBL document CHEMBL3885861, “Open TG-GATES”:

Species: Rattus norvegicus
Assay: Open TG-GATES - Regimen: Single
Assay type: toxicity, organism-based, Sprague-Dawley
Design: regimen Single, gender Male, age 6 weeks
Details: in vivo, po, 0 mg/kg, route gavage, dose level Control; for APTT / Bas / Eos / Fbg / Hb / Ht / Lym / MCH / MCHC / MCV / Mono / Neu / PT / Plat / RBC / Ret / WBC: tissue Blood; for KIDNEY_L / KIDNEY_R / KIDNEY_TOTAL: tissue Kidney; for LIVER: tissue Liver; for A/G / ALP / ALT / AST / BUN / CRE / Ca / Cl / DBIL / GLC / IP / K / LDH / Na / PL / RALB / TBIL / TC / TG / TP / gamma-GTP: tissue Plasma

CC1=C(/C=C/C(C)=C/C=C/C(C)=C/CO)C(C)(C)CCC1 [RETINOL]
TERMINAL_BW (3 h): 195.7 g | APTT (3 h): 22 s | Bas (3 h): 0% | Eos (3 h): 0.8% | Fbg (3 h): 294.8 mg/dL | Hb (3 h): 13.3 g/dL | Ht (3 h): 38.7% | Lym (3 h): 79.4% | MCH (3 h): 21.4 pg | MCHC (3 h): 34.5% | MCV (3 h): 62.2 fL | Mono (3 h): 2% | Neu (3 h): 16.8% | PT (3 h): 15.8 s | Plat (3 h): 108.5 x10_4/uL | RBC (3 h): 621.4 x10_4/ul | Ret (3 h): 8.9% | WBC (3 h): 97.5 x10_2/uL | KIDNEY_L (3 h): 0.9 g | KIDNEY_R (3 h): 0.9 g | KIDNEY_TOTAL (3 h): 1.8 g | LIVER (3 h): 9 g | A/G (3 h): 1.3 | ALP (3 h): 1760.6 IU/L | ALT (3 h): 48 IU/L | AST (3 h): 83.6 IU/L | BUN (3 h): 12.8 mg/dL | CRE (3 h): 0.2 mg/dL | Ca (3 h): 10.6 mg/dL | Cl (3 h): 107.6 meq/L | DBIL (3 h): 0 mg/dL | GLC (3 h): 181 mg/dL | IP (3 h): 8.4 mg/dL | K (3 h): 3.8 meq/L | LDH (3 h): 265.2 IU/L | Na (3 h): 142.2 meq/L | PL (3 h): 148.6 mg/dL | RALB (3 h): 3.2 g/dL | TBIL (3 h): 0.012 mg/dL | TC (3 h): 77 mg/dL | TG (3 h): 58.6 mg/dL | TP (3 h): 5.6 g/dL | gamma-GTP (3 h): 2.8 IU/L | TERMINAL_BW (6 h): 199.1 g | APTT (6 h): 21.6 s | Bas (6 h): 0% | Eos (6 h): 0.6% | Fbg (6 h): 309.6 mg/dL | Hb (6 h): 13.5 g/dL | Ht (6 h): 38.8% | Lym (6 h): 77% | MCH (6 h): 21.6 pg | MCHC (6 h): 34.9% | MCV (6 h): 61.8 fL | Mono (6 h): 3% | Neu (6 h): 18.8% | PT (6 h): 15.7 s | Plat (6 h): 114.9 x10_4/uL | RBC (6 h): 628.2 x10_4/ul | Ret (6 h): 8.5% | WBC (6 h): 113.2 x10_2/uL | KIDNEY_L (6 h): 1 g | KIDNEY_R (6 h): 1 g | KIDNEY_TOTAL (6 h): 1.9 g | LIVER (6 h): 9.2 g | A/G (6 h): 1.3 | ALP (6 h): 1700 IU/L | ALT (6 h): 36.8 IU/L | AST (6 h): 67.8 IU/L | BUN (6 h): 10.6 mg/dL | CRE (6 h): 0.1 mg/dL | Ca (6 h): 10.9 mg/dL | Cl (6 h): 106.4 meq/L | DBIL (6 h): 0.014 mg/dL | GLC (6 h): 181.4 mg/dL | IP (6 h): 9.9 mg/dL | K (6 h): 4.5 meq/L | LDH (6 h): 223.6 IU/L | Na (6 h): 142 meq/L | PL (6 h): 152 mg/dL | RALB (6 h): 3.2 g/dL | TBIL (6 h): 0.022 mg/dL | TC (6 h): 80.6 mg/dL | TG (6 h): 79.6 mg/dL | TP (6 h): 5.5 g/dL | gamma-GTP (6 h): 1.2 IU/L | TERMINAL_BW (9 h): 198.5 g | APTT (9 h): 21.2 s | Bas (9 h): 0% | Eos (9 h): 0.6% | Fbg (9 h): 303.2 mg/dL | Hb (9 h): 13.1 g/dL | Ht (9 h): 38.3% | Lym (9 h): 81.4% | MCH (9 h): 21.6 pg | MCHC (9 h): 34.3% | MCV (9 h): 63 fL | Mono (9 h): 2.6% | Neu (9 h): 15% | PT (9 h): 15.8 s | Plat (9 h): 122.4 x10_4/uL | RBC (9 h): 608.2 x10_4/ul | Ret (9 h): 7.9% | WBC (9 h): 88.4 x10_2/uL | KIDNEY_L (9 h): 0.9 g | KIDNEY_R (9 h): 0.9 g | KIDNEY_TOTAL (9 h): 1.9 g | LIVER (9 h): 8.3 g | A/G (9 h): 1.2 | ALP (9 h): 1691.8 IU/L | ALT (9 h): 33.8 IU/L | AST (9 h): 72.2 IU/L | BUN (9 h): 10 mg/dL | CRE (9 h): 0.1 mg/dL | Ca (9 h): 10.8 mg/dL | Cl (9 h): 107.8 meq/L | DBIL (9 h): 0 mg/dL | GLC (9 h): 183 mg/dL | IP (9 h): 10.8 mg/dL | K (9 h): 4.4 meq/L | LDH (9 h): 302 IU/L | Na (9 h): 142 meq/L | PL (9 h): 131.2 mg/dL | RALB (9 h): 2.9 g/dL | TBIL (9 h): 0.018 mg/dL | TC (9 h): 73.4 mg/dL | TG (9 h): 52.2 mg/dL | TP (9 h): 5.4 g/dL | gamma-GTP (9 h): 4.4 IU/L | TERMINAL_BW (24 h): 205.1 g | APTT (24 h): 20.8 s | Bas (24 h): 0% | Eos (24 h): 0.8% | Fbg (24 h): 294 mg/dL | Hb (24 h): 13.1 g/dL | Ht (24 h): 37.7% | Lym (24 h): 79.4% | MCH (24 h): 21.9 pg | MCHC (24 h): 34.8% | MCV (24 h): 63.2 fL | Mono (24 h): 2.6% | Neu (24 h): 16.6% | PT (24 h): 16.1 s | Plat (24 h): 119.1 x10_4/uL | RBC (24 h): 598.2 x10_4/ul | Ret (24 h): 7.8% | WBC (24 h): 85.8 x10_2/uL | KIDNEY_L (24 h): 0.9 g | KIDNEY_R (24 h): 0.9 g | KIDNEY_TOTAL (24 h): 1.9 g | LIVER (24 h): 9.7 g | A/G (24 h): 1.3 | ALP (24 h): 1692.4 IU/L | ALT (24 h): 41.8 IU/L | AST (24 h): 71.8 IU/L | BUN (24 h): 17.6 mg/dL | CRE (24 h): 0.2 mg/dL | Ca (24 h): 10.7 mg/dL | Cl (24 h): 105.6 meq/L | DBIL (24 h): 0.006 mg/dL | GLC (24 h): 181.6 mg/dL | IP (24 h): 6.4 mg/dL | K (24 h): 4.3 meq/L | LDH (24 h): 245.8 IU/L | Na (24 h): 141.2 meq/L | PL (24 h): 154.2 mg/dL | RALB (24 h): 3.1 g/dL | TBIL (24 h): 0.016 mg/dL | TC (24 h): 79.6 mg/dL | TG (24 h): 79.2 mg/dL | TP (24 h): 5.5 g/dL | gamma-GTP (24 h): 1.2 IU/L
